Legend:
Type in all cases: cell-based
Conditions in all cases: human umbilical vascular endothelial cells, 10 μM, 8 hours, untreated cells as control
[1] = test system: eNOS gene; experiment: eNOS gene expression in cultured vascular endothelial cells (quantitative PCR)
From the text: (§1) With respect to the compounds of Formula (II) and Formula (III) synthesized and purified in Example 1, the effect of them on expression of a gene involved in the vascular endothelial function was studied. Furthermore, as compounds for comparison, an EGCG monomer (manufactured by Wako Pure Chemical Industries Ltd.), theaflavin, theaflavin 3-O-gallate, theaflavin 3′-O-gallate and theaflavin 3,3′-O-digallate (manufactured by Nagara Science Co., Ltd.), which are known to have a vascular endothelial function improving action.
(§2) These compounds were dissolved in sterilized dimethyl sulfoxide (DMSO, manufactured by Nacalai Tesque Inc.) to prepare a solution having a concentration of 10 mM.
(§3) These solutions were diluted 1000 fold by using HuMedia-EG2 medium (manufactured by Kurabo Industries Ltd.) to prepare a solution having a final concentration of 10 μM (the final concentration of DMSO was 0.1 V/V %). These sample solutions each were added to human umbilical vascular endothelial cells (manufactured by Kurabo Industries Ltd.) cultured in a 6-well plate in a proportion of 3 mL/well and incubated at 37° C. under 5% CO2 conditions for 8 hours.
(§4) The cells were recovered by ISOGEN (manufactured by Nippon Gene Co., Ltd.) and RNA was extracted from the cells. Furthermore, RNA was purified by RNeasy Mini Kit (QIAGEN). cDNA was synthesized by a High-Capacity cDNA reverse transcription kit (manufactured by Applied Biosystem) using the total RNA (200 ng) purified as a template and quantitative PCR was performed. Analysis was performed by comparative Ct method with a glyceraldehyde-3-phosphate dehydrogenase gene used as an internal standard. The gene expression change ratio (ratio relative to the control) of a test sample was calculated by using untreated cells as a control.

[2] = test system: GTP-CH1 gene; experiment: GTP-CH1 gene expression in cultured vascular endothelial cells (quantitative PCR)
From the text: as §1, §2, §3, §4

[3] = test system: DDAH2 gene; experiment: DDAH2 gene expression in cultured vascular endothelial cells (quantitative PCR)
From the text: as §1, §2, §3, §4

[4] = test system: Nox4 subunit gene of NADPH oxidase; experiment: Expression of Nox4 subunit gene of NADPH oxidase in cultured vascular endothelial cells (quantitative PCR)
From the text: as §1, §2, §3, §4

O=C(OC1Cc2c(O)cc(O)c(Cc3c(O)cc(O)c4c3OC(c3cc(O)c(O)c(O)c3)C(OC(=O)c3cc(O)c(O)c(O)c3)C4)c2OC1c1cc(O)c(O)c(O)c1)c1cc(O)c(O)c(O)c1 (centres unmarked) [oolong homobisflavan-A, oolong homobisflavan A]
do not substantially change: expression of the eNOS gene (gene expression change ratio relative to the control) [1] | expression of the GTP-CH1 gene (gene expression change ratio relative to the control) [2] | expression of the DDAH2 gene (gene expression change ratio relative to the control) [3] | expression of Nox4 subunit gene of NADPH oxidase (gene expression change ratio relative to the control) [4]

O=C(OC1Cc2c(cc(O)c(Cc3c(O)cc(O)c4c3OC(c3cc(O)c(O)c(O)c3)C(OC(=O)c3cc(O)c(O)c(O)c3)C4)c2O)OC1c1cc(O)c(O)c(O)c1)c1cc(O)c(O)c(O)c1 (centres unmarked) [oolong homobisflavan-B]
do not substantially change: expression of the eNOS gene (gene expression change ratio relative to the control) [1] | expression of the GTP-CH1 gene (gene expression change ratio relative to the control) [2] | expression of the DDAH2 gene (gene expression change ratio relative to the control) [3] | expression of Nox4 subunit gene of NADPH oxidase (gene expression change ratio relative to the control) [4]

O=C(O[C@@H]1Cc2c(cc(O)c(Cc3c(O)cc4c(c3O)C[C@@H](OC(=O)c3cc(O)c(O)c(O)c3)[C@@H](c3cc(O)c(O)c(O)c3)O4)c2O)O[C@@H]1c1cc(O)c(O)c(O)c1)c1cc(O)c(O)c(O)c1 [oolong homobisflavan-C]
do not substantially change: expression of the eNOS gene (gene expression change ratio relative to the control) [1] | expression of the GTP-CH1 gene (gene expression change ratio relative to the control) [2] | expression of the DDAH2 gene (gene expression change ratio relative to the control) [3] | expression of Nox4 subunit gene of NADPH oxidase (gene expression change ratio relative to the control) [4]

O=C(O[C@@H]1Cc2c(O)cc(O)cc2O[C@@H]1c1cc(O)c(O)c(O)c1-c1c([C@H]2Oc3cc(O)cc(O)c3C[C@H]2OC(=O)c2cc(O)c(O)c(O)c2)cc(O)c(O)c1O)c1cc(O)c(O)c(O)c1 [theasinensin A]
do not substantially change: expression of the eNOS gene (gene expression change ratio relative to the control) [1] | expression of the GTP-CH1 gene (gene expression change ratio relative to the control) [2] | expression of the DDAH2 gene (gene expression change ratio relative to the control) [3] | expression of Nox4 subunit gene of NADPH oxidase (gene expression change ratio relative to the control) [4]

(−)-epigallocatechin-3-O-gallate [EGCG monomer]
do not substantially change: expression of the eNOS gene (gene expression change ratio relative to the control) [1] | expression of the GTP-CH1 gene (gene expression change ratio relative to the control) [2] | expression of the DDAH2 gene (gene expression change ratio relative to the control) [3] | expression of Nox4 subunit gene of NADPH oxidase (gene expression change ratio relative to the control) [4]

Source: patent US9375416B2, “Epigallocatechin gallate tetramer and vascular endothelial function improving agent containing the same” (SUNTORY HOLDING LIMITED, priority 2008, dated 2016)
